The source of these data is PubChem BioAssay AID1259407 (Chemical Carcinogenesis Research Information System (CCRIS), 2018).

The structures appear in SMILES notation. The source made the active and inactive calls. No rule for the calls is given here.

The test system of this series is CCRIS mutagenicity, Ames/micronucleus/aberration tests. Kind of series: CCRIS mutagenicity studies.
Setting [1] is: Test System: AMES SALMONELLA TYPHIMURIUM, Strain/Indicator: TA98, Metabolic Activation: NONE, Method: STANDARD PLATE.
[2] abbreviates: Test System: AMES SALMONELLA TYPHIMURIUM, Strain/Indicator: TA98, Metabolic Activation: RAT, LIVER, S-9, AROCLOR 1254, Method: STANDARD PLATE.
Setting [3] is: Test System: AMES SALMONELLA TYPHIMURIUM, Strain/Indicator: TA100, Metabolic Activation: NONE, Method: STANDARD PLATE.
Setting [4] is: Test System: AMES SALMONELLA TYPHIMURIUM, Strain/Indicator: TA100, Metabolic Activation: RAT, LIVER, S-9, AROCLOR 1254, Method: STANDARD PLATE.
[5] abbreviates: Test System: MOUSE LYMPHOMA, Strain/Indicator: L5178Y (TK+/TK-), Metabolic Activation: NONE, Method: SUSPENSION/PLATE.
[6] abbreviates: Test System: MOUSE LYMPHOMA, Strain/Indicator: L5178Y (TK+/TK-), Metabolic Activation: RAT, LIVER, S-9, AROCLOR 1254, Method: SUSPENSION/PLATE.

As for `c1cc2ccc3ccc4ccc5cccc6c(c1)c2c3c4c56`, the mutagenic call is, setting by setting: (Test System: AMES SALMONELLA TYPHIMURIUM, Strain/Indicator: TA97, Metabolic Activation: NONE, Method: STANDARD PLATE) “inactive; negative”; (Test System: AMES SALMONELLA TYPHIMURIUM, Strain/Indicator: TA97, Metabolic Activation: RAT, LIVER, S-9, PCB, Method: STANDARD PLATE) “active; positive”; under setting [1], “inactive; negative”; (Test System: AMES SALMONELLA TYPHIMURIUM, Strain/Indicator: TA98, Metabolic Activation: RAT, LIVER, S-9, AROCLOR 1254, Method: FLUCTUATION) “active; positive”; under setting [2], “active; positive”; (Test System: AMES SALMONELLA TYPHIMURIUM, Strain/Indicator: TA98, Metabolic Activation: RAT, LIVER, S-9, PCB, Method: STANDARD PLATE) “active; positive”. In addition, the mutagenic call reads like this: under setting [3], “inactive; negative”; under setting [4], “active; positive”; (Test System: AMES SALMONELLA TYPHIMURIUM, Strain/Indicator: TA100, Metabolic Activation: RAT, LIVER, S-9, PCB, Method: STANDARD PLATE) “inactive; negative”; (Test System: AMES SALMONELLA TYPHIMURIUM, Strain/Indicator: TA1537, Metabolic Activation: RAT, LIVER, S-9, AROCLOR 1254, Method: STANDARD PLATE) “active; positive”; (Test System: AMES SALMONELLA TYPHIMURIUM, Strain/Indicator: TA1538, Metabolic Activation: RAT, LIVER, S-9, AROCLOR 1254, Method: FLUCTUATION) “active; positive”; (Test System: AMES SALMONELLA TYPHIMURIUM, Strain/Indicator: TA1538, Metabolic Activation: RAT, LIVER, S-9, AROCLOR 1254, Method: STANDARD PLATE) “active; positive”. Besides, the mutagenic call (Test System: AMES SALMONELLA TYPHIMURIUM, Strain/Indicator: TA1538, Metabolic Activation: RAT, LIVER, S-9, PHENOBARBITAL, Method: STANDARD PLATE) is “active; positive”.
Regarding `CCN(N=O)C(=O)N(C)C`, the mutagenic call is “active; positive” (Test System: AMES SALMONELLA TYPHIMURIUM, Strain/Indicator: TA1535, Metabolic Activation: NONE, Method: STANDARD PLATE) and “active; positive” (Test System: AMES SALMONELLA TYPHIMURIUM, Strain/Indicator: TA1535, Metabolic Activation: RAT, LIVER, S-9, BETA-NAPHTHOFLAVONE AND PHENOBARBITAL, Method: STANDARD PLATE).
Turning to `O=C([O-])/C=C/C(=O)[O-].[Fe+2]`, the mutagenic call reads like this: (Test System: AMES SALMONELLA TYPHIMURIUM, Strain/Indicator: TA98, Metabolic Activation: HAMSTER, LIVER, S-9, AROCLOR 1254, Method: STANDARD PLATE) “active; positive”; under setting [1], “inactive; negative”; under setting [2], “active; positive”; (Test System: AMES SALMONELLA TYPHIMURIUM, Strain/Indicator: TA100, Metabolic Activation: HAMSTER, LIVER, S-9, AROCLOR 1254, Method: STANDARD PLATE) “inactive; negative”; under setting [3], “inactive; negative”; under setting [4], “inactive; negative”. For the same compound, the mutagenic call was “inactive; negative” (Test System: AMES SALMONELLA TYPHIMURIUM, Strain/Indicator: TA102, Metabolic Activation: HAMSTER, LIVER, S-9, AROCLOR 1254, Method: STANDARD PLATE); “inactive; negative” (Test System: AMES SALMONELLA TYPHIMURIUM, Strain/Indicator: TA102, Metabolic Activation: NONE, Method: PREINCUBATION); “inactive; negative” (Test System: AMES SALMONELLA TYPHIMURIUM, Strain/Indicator: TA102, Metabolic Activation: NONE, Method: STANDARD PLATE); “inactive; negative” (Test System: AMES SALMONELLA TYPHIMURIUM, Strain/Indicator: TA102, Metabolic Activation: RAT, LIVER, S-9, AROCLOR 1254, Method: STANDARD PLATE); “active; positive. reevaluation of results: positive” under setting [5]; “inactive; negative. reevaluation of results: negative” under setting [6].
Turning to `Cc1ccc(N=C=O)cc1N=C=O`, the mutagenic call is, setting by setting: (End Point: IN VITRO CHROMOSOMAL ABERRATIONS, Test System: CHL CELLS, Metabolic Activation: RAT, LIVER, S-9, SODIUM PHENOBARBITAL AND 5,6-BENZOFLAVONE) “inactive; negative; authors report equivocal results for ploidy changes at the highest dos”; (End Point: IN VITRO CHROMOSOMAL ABERRATIONS, Test System: CHO CELLS, Metabolic Activation: RAT, LIVER, S-9, AROCLOR 1254) “inactive; negative; precipitation occurred at 500 and 750 ug/ml”; (Test System: AMES SALMONELLA TYPHIMURIUM, Strain/Indicator: TA97, Metabolic Activation: HAMSTER, LIVER, S-9, AROCLOR 1254 (10%), Method: PREINCUBATION) “inactive; negative”; (Test System: AMES SALMONELLA TYPHIMURIUM, Strain/Indicator: TA97, Metabolic Activation: NONE, Method: PREINCUBATION) “inactive; negative”; (Test System: AMES SALMONELLA TYPHIMURIUM, Strain/Indicator: TA97, Metabolic Activation: RAT, LIVER, S-9, AROCLOR 1254 (10%), Method: PREINCUBATION) “inactive; negative”; (Test System: AMES SALMONELLA TYPHIMURIUM, Strain/Indicator: TA98, Metabolic Activation: HAMSTER, LIVER, S-9, AROCLOR 1254 (10%), Method: PREINCUBATION) “active; positive”. Also, the mutagenic call is “inactive; negative” (Test System: AMES SALMONELLA TYPHIMURIUM, Strain/Indicator: TA98, Metabolic Activation: NONE, Method: PREINCUBATION); “active; positive” (Test System: AMES SALMONELLA TYPHIMURIUM, Strain/Indicator: TA98, Metabolic Activation: RAT LIVER S-9, AROCLOR 1254 (10 OR 30%), Method: STANDARD PLATE); “inactive; negative” (Test System: AMES SALMONELLA TYPHIMURIUM, Strain/Indicator: TA98, Metabolic Activation: RAT LIVER S-9, PHENOBARBITAL AND BETA-NAPHTHOFLAVONE, Method: PREINCUBATION); “active; positive” (Test System: AMES SALMONELLA TYPHIMURIUM, Strain/Indicator: TA98, Metabolic Activation: RAT, LIVER, S-9, AROCLOR 1254 (10%), Method: PREINCUBATION); “active; positive” (Test System: AMES SALMONELLA TYPHIMURIUM, Strain/Indicator: TA100, Metabolic Activation: HAMSTER, LIVER, S-9, AROCLOR 1254 (10%), Method: PREINCUBATION); “inactive; negative” (Test System: AMES SALMONELLA TYPHIMURIUM, Strain/Indicator: TA100, Metabolic Activation: NONE, Method: PREINCUBATION). Besides, the mutagenic call is, setting by setting: (Test System: AMES SALMONELLA TYPHIMURIUM, Strain/Indicator: TA100, Metabolic Activation: RAT, LIVER, S-9, AROCLOR 1254 (10%), Method: PREINCUBATION) “active; positive”; (Test System: AMES SALMONELLA TYPHIMURIUM, Strain/Indicator: TA1535, Metabolic Activation: HAMSTER, LIVER, S-9, AROCLOR 1254 (10%), Method: PREINCUBATION) “inactive; negative”; (Test System: AMES SALMONELLA TYPHIMURIUM, Strain/Indicator: TA1535, Metabolic Activation: NONE, Method: PREINCUBATION) “inactive; negative”; (Test System: AMES SALMONELLA TYPHIMURIUM, Strain/Indicator: TA1535, Metabolic Activation: RAT LIVER S-9, PHENOBARBITAL AND BETA-NAPHTHOFLAVONE, Method: PREINCUBATION) “inactive; negative”; (Test System: AMES SALMONELLA TYPHIMURIUM, Strain/Indicator: TA1535, Metabolic Activation: RAT, LIVER, S-9, AROCLOR 1254 (10%), Method: PREINCUBATION) “inactive; negative”; (Test System: AMES SALMONELLA TYPHIMURIUM, Strain/Indicator: TA1537, Metabolic Activation: NONE, Method: PREINCUBATION) “inactive; negative”. For the same compound, the mutagenic call reads like this: (Test System: AMES SALMONELLA TYPHIMURIUM, Strain/Indicator: TA1537, Metabolic Activation: RAT LIVER S-9, AROCLOR 1254 (10 OR 30%), Method: STANDARD PLATE) “active; positive”; (Test System: AMES SALMONELLA TYPHIMURIUM, Strain/Indicator: TA1537, Metabolic Activation: RAT LIVER S-9, PHENOBARBITAL AND BETA-NAPHTHOFLAVONE, Method: PREINCUBATION) “inactive; negative”; (Test System: E.COLI, Strain/Indicator: WP2UVRA, Metabolic Activation: NONE, Method: PREINCUBATION) “inactive; negative”; (Test System: E.COLI, Strain/Indicator: WP2UVRA, Metabolic Activation: RAT LIVER S-9, PHENOBARBITAL AND BETA-NAPHTHOFLAVONE, Method: PREINCUBATION) “inactive; negative”; under setting [5], “active; positive”; under setting [6], “active; positive”.
